Experimental findings from PubChem BioAssay (NCI) are described below.

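Where inhibition never reached the appropriate level, the endpoint shown equals the highest concentration tested. Otherwise, values were interpolated linearly from a five-concentration, 48-hour dose response in 96-well plates. TGI marks complete inhibition of growth.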 Some results are limits rather than exact numbers.

Among the test systems are MOLT-4 leukemia; HCT-116 colon; UACC-257 melanoma; SK-MEL-5 melanoma; NCI-H23 lung; U251 CNS; NCI-H460 lung; CAKI-1 renal; SK-OV-3 ovarian.
Common to all, as to assay: NCI tumour cell line growth inhibition, 48 h

In the case of `CCCCCCCCCC(=O)OCC1OC(n2cc(F)c(=O)[nH]c2=O)C(N)C(OC(=O)CCCCCCCCC)C1O` (stereo unspecified), the TGI in the test on MOLT-4 leukemia turned out to be 32.7 µM; with HCT-116 colon it was 32.1 µM; with UACC-257 melanoma, 39 µM; in the test on SK-MEL-5 melanoma, 37.4 µM; with NCI-H23 lung, 36 µM; in the test on U251 CNS, 32.3 µM. Further, the TGI is 40.5 µM in the test on NCI-H460 lung, above 100 µM in the test on CAKI-1 renal and above 100 µM in the test on SK-OV-3 ovarian.
As for `COc1ccc(OC)c2cc(C3(C)SCCCS3)ccc12`, the TGI in the test on MOLT-4 leukemia, with HCT-116 colon, in the test on UACC-257 melanoma, with SK-MEL-5 melanoma, in the test on NCI-H23 lung and with U251 CNS was above 100 µM in each case. In addition, the TGI in the test with NCI-H460 lung, with CAKI-1 renal and with SK-OV-3 ovarian was above 100 µM each time.
With `Cc1ccc2[nH]c(=O)c(C(C#N)c3ccccc3)nc2c1` (stereo unspecified), the TGI is above 100 µM in the test on MOLT-4 leukemia; above 100 µM in the test with HCT-116 colon; above 100 µM in the test on UACC-257 melanoma; 57.8 µM in the test with SK-MEL-5 melanoma; above 100 µM in the test with NCI-H23 lung; 84.5 µM in the test with U251 CNS. For the same compound, the figures for the TGI in the test on NCI-H460 lung, in the test on CAKI-1 renal and with SK-OV-3 ovarian were above 100 µM, 76.9 µM and above 100 µM, respectively.
For `Cc1ccc(C2=NO[C@@H]3C(=O)N(c4ccc(Cc5ccc(N6C(=O)[C@H]7C(c8ccc(C)cc8)=NO[C@H]7C6=O)cc5)cc4)C(=O)[C@H]23)cc1`, the TGI in the test on UACC-257 melanoma, with SK-MEL-5 melanoma, in the test on NCI-H23 lung, in the test with U251 CNS, with NCI-H460 lung and in the test on CAKI-1 renal was above 100 µM throughout. In addition, in the test on SK-OV-3 ovarian, the TGI is above 100 µM.
`CCN(CC)c1ccc2c(c1)N=C1N=CC=CN1C2(c1ccc(N(C)C)cc1)c1ccc(N(C)C)cc1`: the TGI with MOLT-4 leukemia came out at 6.22 µM; in the test with HCT-116 colon, 11.8 µM; in the test on UACC-257 melanoma, 19.5 µM; with SK-MEL-5 melanoma, 26.7 µM; in the test on NCI-H23 lung it was 20.2 µM; with U251 CNS, 16 µM. Moreover, the results for the TGI in the test on NCI-H460 lung, in the test on CAKI-1 renal and with SK-OV-3 ovarian were 22.2 µM, 25.2 µM and 19.1 µM, respectively.
On to `CC1C(=O)N(C)C2(CO)C(=O)O[C@H](C)C12O` (stereo partly specified), for which the TGI in the test on MOLT-4 leukemia, in the test on HCT-116 colon, in the test with SK-MEL-5 melanoma, with NCI-H23 lung, with U251 CNS and in the test with CAKI-1 renal was above 100 µM throughout. In the test with SK-OV-3 ovarian, this compound had a TGI above 100 µM.
Take `O=C(O)/C(Cl)=C(\Cl)C(=O)Nc1ccccc1`: the TGI in the test on MOLT-4 leukemia, in the test on HCT-116 colon, in the test on UACC-257 melanoma, in the test on SK-MEL-5 melanoma, with NCI-H23 lung and in the test with U251 CNS was above 100 µM each time. Besides, the TGI with NCI-H460 lung, in the test on CAKI-1 renal and in the test on SK-OV-3 ovarian was above 100 µM in each case.
With `O=C(C=Nc1ccccc1C(=O)[O-])c1cccs1.O=C(C=Nc1ccccc1C(=O)[O-])c1cccs1.[Cu+2]`, the TGI in the test with MOLT-4 leukemia, with HCT-116 colon, with UACC-257 melanoma, in the test on NCI-H23 lung, in the test on U251 CNS and in the test with NCI-H460 lung was above 100 µM in each case. Further, the TGI in the test on CAKI-1 renal and in the test on SK-OV-3 ovarian was above 100 µM each time.
Turning to `COC(=O)C(=O)C(C(=O)C(=O)Nc1cc([N+](=O)[O-])ccc1[N+](=O)[O-])c1nc2ccc(C(=O)c3ccccc3)cc2[nH]c1=O` (stereo unspecified), the TGI in the test with MOLT-4 leukemia is 61.5 µM; in the test with HCT-116 colon, above 100 µM; with UACC-257 melanoma, above 100 µM; with SK-MEL-5 melanoma, 45.9 µM; with NCI-H23 lung, 70.4 µM; with U251 CNS, above 100 µM. Further, the TGI with NCI-H460 lung, with CAKI-1 renal and in the test on SK-OV-3 ovarian was above 100 µM each time.
Turning to `CSC(=S)NNC(=O)c1ccncc1`, the TGI with MOLT-4 leukemia is 55.6 µM; in the test on HCT-116 colon, 38.3 µM; in the test with UACC-257 melanoma, 56.7 µM; in the test with SK-MEL-5 melanoma, 62.6 µM; in the test on NCI-H23 lung it was 33.2 µM; in the test on U251 CNS it was 41.9 µM. Also, the TGI in the test on NCI-H460 lung is above 100 µM; in the test on CAKI-1 renal, 56.2 µM; in the test on SK-OV-3 ovarian, 96.2 µM.
Take `CC1OC(O)CC(OC(=O)c2ccccc2)C1OC(=O)c1ccccc1` (stereo unspecified): the TGI in the test with MOLT-4 leukemia was 39 µM; with HCT-116 colon it was 23.3 µM; with UACC-257 melanoma, 29.4 µM; in the test with SK-MEL-5 melanoma it was 31.4 µM; in the test with NCI-H23 lung, 30.8 µM; in the test on U251 CNS, above 100 µM. Also, the TGI in the test with NCI-H460 lung was above 100 µM; in the test with CAKI-1 renal, 63.1 µM.
Turning to `COC(=O)C1=CC2OC1(C)C1(CC1)C2=O` (stereo unspecified), the TGI in the test on MOLT-4 leukemia is 27.2 µM; in the test on HCT-116 colon, 27.8 µM; in the test with UACC-257 melanoma, 31 µM; in the test on NCI-H23 lung, 49.7 µM; with U251 CNS it was above 100 µM; in the test on NCI-H460 lung, 48.4 µM. The TGI is 33.5 µM with CAKI-1 renal and above 100 µM in the test with SK-OV-3 ovarian.
Turning to `O=C1c2ccccc2C(=O)c2nc(-c3ccccc3)c(-c3ccccc3)nc21`, the TGI with MOLT-4 leukemia was above 100 µM; in the test with HCT-116 colon, above 100 µM; with SK-MEL-5 melanoma it was 8.2 µM; in the test on NCI-H23 lung, above 100 µM; in the test with U251 CNS, above 100 µM; with NCI-H460 lung, above 100 µM. In addition, the TGI with CAKI-1 renal and in the test with SK-OV-3 ovarian was above 100 µM each time.
In the case of `CC12CC3CC(C)(C1)CC(N=[N+]=[N-])(C3)C2`, the TGI with MOLT-4 leukemia, with HCT-116 colon, with UACC-257 melanoma, with SK-MEL-5 melanoma, in the test on NCI-H23 lung and in the test on U251 CNS was above 100 µM each time. Also, the TGI in the test with NCI-H460 lung, with CAKI-1 renal and in the test on SK-OV-3 ovarian was above 100 µM in each case.
Turning to `CNC1C(O)CC(OC2C/C=C(\C)C/C(C)=C/C=C/CCC(C)CNC(=O)/C=C/C=C/C2C)OC1C` (stereo unspecified), the TGI with HCT-116 colon was found to be 0.324 µM; with UACC-257 melanoma it was 1.65 µM; in the test with SK-MEL-5 melanoma, 1.22 µM; in the test with NCI-H23 lung it was 2.62 µM; in the test on U251 CNS, 1.03 µM; in the test on NCI-H460 lung it was 0.317 µM. Further, the TGI in the test with CAKI-1 renal worked out at 1.6 µM; in the test on SK-OV-3 ovarian, 3.27 µM.
